Reference: patent US20100305068A1, “COMPOUNDS AND METHODS FOR MODULATING PROTEIN TRAFFICKING” (priority 2006, published 2010)
Read-outs that look alike come from different tables or passages of the source.

System: pdr5 ypt1^ts cells
Experiment: microbe, parasite or virus in culture
Assay type: cell-based, yeast
Settings: for minimal effective concentration: Saccharomyces cerevisiae, lowest concentration tested giving growth above the 0 μM background, read-out: ypt1-ts MRC (minimal rescue concentration); for minimal effective concentration / optical density, ypt1-ts, 0.39 / optical density, ypt1-ts, 0.78 / optical density, ypt1-ts, 1.56 / optical density, ypt1-ts, 3.13 / optical density, ypt1-ts, 6.25 / optical density, ypt1-ts, 12.5 / optical density, ypt1-ts, 25: Table 2; for optical density, ypt1-ts, 0.39: 0.39 μM compound; for optical density, ypt1-ts, 0.39 / optical density, ypt1-ts, 0.78 / optical density, ypt1-ts, 1.56 / optical density, ypt1-ts, 3.13 / optical density, ypt1-ts, 6.25 / optical density, ypt1-ts, 12.5 / optical density, ypt1-ts, 25: background (0 μM) 0.058; for optical density, ypt1-ts, 0.78: 0.78 μM compound; for optical density, ypt1-ts, 1.56: 1.56 μM compound; for optical density, ypt1-ts, 3.13: 3.13 μM compound; for optical density, ypt1-ts, 6.25: 6.25 μM compound; for optical density, ypt1-ts, 12.5: 12.5 μM compound; for optical density, ypt1-ts, 25: 25 μM compound
Description: The activity of the compounds as modulators of protein trafficking may be measured in the assays described herein that evaluate the ability of a compound to rescue an impairment in protein trafficking. For example, the yeast mutant cell line ypt1^ts can be used to identify compounds that rescue cells from the lethal phenotype of a mutant YPT1 allele (see, e.g., Examples and Schmitt et al. (1988) Cell 53:635-47). The activity may be measured, for example, in a whole yeast cell assay using 384-well screening protocol and an optical density measurement.
The yeast mutant cell line ypt1^ts suppresses, in a temperature dependent fashion, the dominant-lethal phenotype of a mutant YPT1 allele (Schmitt et al. (1988) Cell 53:635-47). ypt1^ts cells grow normally at temperatures up to 30° C., but are growth arrested at 37° C. (Id.).
A library of compounds (“The Spectrum Collection”) obtained from Microsource Discovery Systems, Inc. (Gaylordsville, Conn.) was screened to assess the ability of individual compounds to restore growth of ypt1^ts cells. Screening was carried out using ypt1^ts cells containing a mutation in the pdr5 gene (resulting in inactivation of a membrane efflux pump). The effect of the compounds was measured in pdr5 ypt1^ts cells cultured at 37° C.

[1] = Table 3, 3.13 uM compound, 37° C., background (0 uM) 0.077
[2] = Table 3, 12.5 uM compound, 37° C., background (0 uM) 0.077
[3] = Table 3, 50 uM compound, 37° C., background (0 uM) 0.077

SMILES	minimal effective concentration (37° C.) [µM]	optical density, ypt1-ts, 0.39 (37° C.)	optical density, ypt1-ts, 0.78 (37° C.)	optical density, ypt1-ts, 1.56 (37° C.)	optical density, ypt1-ts, 3.13 (37° C.)	optical density, ypt1-ts, 6.25 (37° C.)	optical density, ypt1-ts, 12.5 (37° C.)	optical density, ypt1-ts, 25 (37° C.)	optical density, 3.13 uM [1]	optical density, 12.5 uM [2]	optical density, 50 uM [3]	optical density, 3.13 uM	optical density, 12.5 uM	optical density, 50 uM
CC(=O)O[C@@H]1C[C@@]2(C)[C@H](c3ccoc3)C[C@H]3O[C@]32[C@]2(C)C(=O)C(O)=C3C(C)(C)C(=O)C=C[C@]3(C)[C@@H]12 [ANTHOTHECOL]	3.13	0.161	0.085	0.12	0.262	0.537	0.581	0.557	–	–	–	–	–	–
CC1(C)C(=O)C=C[C@@]2(C)C1CC(=O)[C@]1(C)C2CC[C@@]2(C)[C@H](c3ccoc3)OC(=O)[C@H]3O[C@]321 (stereo partly shown) [DEACETOXY- 7-OXOGEDUNIN]	–	–	–	–	–	–	–	–	0.594	0.63	0.642	–	–	–
CCOC(=O)c1c(C)cc(O)c(C=O)c1O [H[…], ETHYL ESTER]	3.13	0.104	0.078	0.105	0.135	0.204	0.621	0.645	–	–	–	–	–	–
C=C1[C@H]2CC[C@@]3(C)[C@H](c4ccoc4)OC(=O)C[C@]13O[C@H]1C[C@@H](O)C(C)(C)[C@H](CC(=O)OC)[C@]12C [3alpha-HYDROXY-3- DEOXY[…] METHYL ESTER2]	3.13	0.169	0.078	0.093	0.144	0.381	0.566	0.611	–	–	–	–	–	–
COC(=O)C[C@H]1C(C)(C)C2(O)OC34CC2C(=O)[C@]1(C)C3CC[C@]1(C)C4=CC(=O)O[C@H]1c1ccoc1 (stereo partly drawn) [8beta- HYDROXY- CARAPIN, 3,8- HEMIACETAL]	–	–	–	–	–	–	–	–	0.151	0.383	0.486	–	–	–
CC(C)c1ccc2c(c1)CCC1C(C)(C(N)=O)CCCC21C (stereo not shown) [DEHYDRO- ABIETAMIDE]	–	–	–	–	–	–	–	–	0.272	0.419	0.041	–	–	–
Cc1ccc2c(c1)CC[C@H]1CC(=O)CC[C@]21C [13-METHYL- 4,4-BISNOR- 8,11,13- PODO- […]- 3-ONE]	–	–	–	–	–	–	–	–	0.082	0.152	0.424	–	–	–
COC(=O)C[C@H]1C(C)(C)C(=O)[C@@H]2CC3=C4CC(=O)O[C@@H](c5ccoc5)[C@]4(C)CCC3[C@]1(C)C2=O (stereo partly shown) [MEXICANOLIDE]	6.25	0.092	0.069	0.076	0.105	0.216	0.377	0.573	–	–	–	–	–	–
C[C@]12CCC(=O)C[C@@H]1CC[C@@H]1[C@@H]2CC[C@]2(C)C(=O)CC[C@@H]12 [5alpha- ANDROSTAN- 3,17-DIONE]	–	–	–	–	–	–	–	–	–	–	–	0.11	0.16	0.319
CC1(C)C(=O)CC[C@@]2(C)C1C[C@@H](O)[C@@]1(C)C3=CC(=O)O[C@@H](c4ccoc4)[C@]3(C)CCC21 (stereo partly shown) [DIHYDRO- 7- […]- OXYGEDUNIN]	–	–	–	–	–	–	–	–	0.197	0.568	0.328	–	–	–
COc1ccc(/C=C/c2cc(O)cc(O)c2)cc1 [RESVERA- TROL 4′- METHYL ETHER]	–	–	–	–	–	–	–	–	0.08	0.103	0.331	–	–	–
CCOC(=O)C1=C(C)NC(C)=C(C(=O)OC)C1c1cccc([N+](=O)[O-])c1 (stereo not shown) [NITRENDIPINE, reference compound]	3.13	0.11	0.089	0.103	0.143	0.309	0.403	0.481	–	–	–	–	–	–
COc1ccc([C@@H](C)C(=O)c2ccc(O)cc2O)cc1 [ANGOLENSIN (R)]	–	–	–	–	–	–	–	–	0.327	0.652	0.062	–	–	–
O=C(/C=C(\O)c1ccccc1)c1ccccc1O [2',beta- DIHYDROXYCHALCONE]	12.5	0.083	0.072	0.076	0.096	0.124	0.31	0.551	–	–	–	–	–	–
CC1(C)CC2C1CCC1(CBr)CC[C@H]3C(CC(=O)O)C(=O)OC23C1 (stereo partly shown) [BROMO-3-HYDROXY- 4-(SUCCIN-2-YL)- CARYOLANE gamma- LACTONE]	6.25	0.091	0.079	0.091	0.101	0.139	0.245	0.417	–	–	–	–	–	–
COc1ccc2c(c1)OCC(Cc1ccc(OC)c(OC)c1)C2=O (stereo not shown) [DEOXY- SAPPANONE B TRIMETHYL ETHER]	–	–	–	–	–	–	–	–	0.107	0.203	0.514	–	–	–
CC/C(=C(/CC)c1ccc(O)cc1)c1ccc(O)cc1 [DIETHYLSTILBESTROL, reference compound]	12.5	0.089	0.076	0.091	0.108	0.103	0.163	0.162	–	–	–	–	–	–
